Key:
PKCα = PKCα (Homo sapiens, UniProt P17252); assay: biochemical; format: binding
PKCβI = PKCβI (Homo sapiens, UniProt P05771); assay: PKC binding assay, competition with 3H-PDBu
PKCδ = PKCδ (Homo sapiens, UniProt Q05655); assay: PKC binding assay, competition with 3H-PDBu
PKCε = target: T1, PKCε (Homo sapiens, UniProt Q02156); assay: PKC binding assay, competition with 3H-PDBu
T1 sequence (Q02156 1-737): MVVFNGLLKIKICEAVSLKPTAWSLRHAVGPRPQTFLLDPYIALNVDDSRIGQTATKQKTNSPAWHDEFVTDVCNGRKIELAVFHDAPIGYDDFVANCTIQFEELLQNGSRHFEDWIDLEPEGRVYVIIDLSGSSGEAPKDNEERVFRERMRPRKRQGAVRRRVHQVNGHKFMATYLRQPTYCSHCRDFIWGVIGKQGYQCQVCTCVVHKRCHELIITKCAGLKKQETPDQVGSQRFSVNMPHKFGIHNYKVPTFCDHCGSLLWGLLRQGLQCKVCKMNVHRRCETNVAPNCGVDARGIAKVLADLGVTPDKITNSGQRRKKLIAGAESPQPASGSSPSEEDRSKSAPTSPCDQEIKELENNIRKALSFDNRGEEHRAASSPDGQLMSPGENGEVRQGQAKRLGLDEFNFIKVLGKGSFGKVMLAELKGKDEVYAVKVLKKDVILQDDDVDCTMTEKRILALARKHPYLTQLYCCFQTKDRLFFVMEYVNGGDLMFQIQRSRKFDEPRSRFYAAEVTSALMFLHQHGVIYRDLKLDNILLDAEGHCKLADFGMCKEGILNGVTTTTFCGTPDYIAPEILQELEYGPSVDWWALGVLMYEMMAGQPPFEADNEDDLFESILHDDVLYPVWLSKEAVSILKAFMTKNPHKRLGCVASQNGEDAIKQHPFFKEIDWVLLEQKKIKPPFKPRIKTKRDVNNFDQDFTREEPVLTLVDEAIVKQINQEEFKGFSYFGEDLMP

PKCθ = PKCθ (Homo sapiens, UniProt Q04759); assay: PKC binding assay, competition with 3H-PDBu
PKC isoforms = assay: Cell-free competitive PKC binding, statements across isoforms; set-up: species or system human; settings: five PKC isoforms

Sequence of PKCθ (Q04759 whole entry, canonical isoform): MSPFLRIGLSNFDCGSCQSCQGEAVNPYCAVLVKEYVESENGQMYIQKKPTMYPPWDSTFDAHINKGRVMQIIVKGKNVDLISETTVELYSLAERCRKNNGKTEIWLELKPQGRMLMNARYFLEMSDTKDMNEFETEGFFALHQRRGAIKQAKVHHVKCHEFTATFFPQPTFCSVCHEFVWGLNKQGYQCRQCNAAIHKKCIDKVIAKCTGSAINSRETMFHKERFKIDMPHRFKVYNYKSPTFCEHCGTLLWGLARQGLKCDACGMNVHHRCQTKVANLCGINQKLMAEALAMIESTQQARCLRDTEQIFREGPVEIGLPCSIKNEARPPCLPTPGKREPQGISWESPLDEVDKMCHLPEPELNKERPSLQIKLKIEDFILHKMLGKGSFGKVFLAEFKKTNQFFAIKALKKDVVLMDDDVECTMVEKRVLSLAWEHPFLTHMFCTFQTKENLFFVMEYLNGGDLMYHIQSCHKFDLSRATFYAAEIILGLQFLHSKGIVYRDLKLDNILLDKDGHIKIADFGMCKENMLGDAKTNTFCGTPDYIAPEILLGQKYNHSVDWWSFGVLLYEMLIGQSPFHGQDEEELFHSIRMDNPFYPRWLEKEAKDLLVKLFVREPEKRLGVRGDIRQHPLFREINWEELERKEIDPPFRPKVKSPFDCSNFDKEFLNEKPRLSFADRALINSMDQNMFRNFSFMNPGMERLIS
Sequence of PKCδ (Q05655 whole entry): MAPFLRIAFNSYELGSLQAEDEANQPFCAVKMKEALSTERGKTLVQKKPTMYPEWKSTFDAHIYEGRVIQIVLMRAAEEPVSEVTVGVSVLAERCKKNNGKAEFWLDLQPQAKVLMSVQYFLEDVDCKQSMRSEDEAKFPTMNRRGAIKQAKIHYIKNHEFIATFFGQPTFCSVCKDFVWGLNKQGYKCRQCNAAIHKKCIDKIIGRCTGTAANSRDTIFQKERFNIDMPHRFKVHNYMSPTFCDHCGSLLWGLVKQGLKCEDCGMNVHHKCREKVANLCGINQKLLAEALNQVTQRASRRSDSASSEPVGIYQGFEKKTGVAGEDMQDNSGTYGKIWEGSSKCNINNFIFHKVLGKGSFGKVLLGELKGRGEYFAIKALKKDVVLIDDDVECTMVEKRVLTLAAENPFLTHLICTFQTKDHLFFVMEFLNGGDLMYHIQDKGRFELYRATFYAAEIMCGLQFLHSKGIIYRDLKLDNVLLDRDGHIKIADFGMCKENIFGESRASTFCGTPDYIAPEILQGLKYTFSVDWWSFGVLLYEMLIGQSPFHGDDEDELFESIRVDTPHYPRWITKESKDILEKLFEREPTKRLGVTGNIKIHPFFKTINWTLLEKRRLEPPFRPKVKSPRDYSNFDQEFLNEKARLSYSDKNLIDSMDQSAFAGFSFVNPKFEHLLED
Sequence of PKCβI (P05771 whole entry): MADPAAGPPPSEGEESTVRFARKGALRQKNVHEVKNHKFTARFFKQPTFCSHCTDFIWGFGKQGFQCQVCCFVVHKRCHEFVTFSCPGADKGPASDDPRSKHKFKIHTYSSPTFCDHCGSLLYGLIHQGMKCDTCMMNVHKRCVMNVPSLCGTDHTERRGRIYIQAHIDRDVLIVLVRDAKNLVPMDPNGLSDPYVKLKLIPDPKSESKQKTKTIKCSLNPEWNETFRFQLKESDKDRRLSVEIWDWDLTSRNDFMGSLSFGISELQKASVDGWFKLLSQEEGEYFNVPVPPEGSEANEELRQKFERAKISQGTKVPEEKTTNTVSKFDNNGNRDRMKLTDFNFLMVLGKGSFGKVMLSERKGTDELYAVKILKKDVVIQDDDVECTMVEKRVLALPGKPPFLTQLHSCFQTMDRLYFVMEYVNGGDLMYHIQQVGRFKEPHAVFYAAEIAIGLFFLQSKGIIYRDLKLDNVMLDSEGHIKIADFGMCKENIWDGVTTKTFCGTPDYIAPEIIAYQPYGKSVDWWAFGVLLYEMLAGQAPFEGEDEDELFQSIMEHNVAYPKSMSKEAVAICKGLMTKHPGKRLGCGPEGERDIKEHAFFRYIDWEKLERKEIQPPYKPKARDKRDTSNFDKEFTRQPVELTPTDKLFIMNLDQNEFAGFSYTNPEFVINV

Compound | Ki (PKCα) [nM] | Ki (PKCβI) [nM] | Ki (PKCδ) [nM] | Ki (PKCε) [nM] | Ki (PKCθ) [nM] | PKC binding affinities (PKC isoforms)
CCCCCCCC(=O)O[C@H]1/C(=C/C(=O)OC)C[C@H]2C[C@H](CO)OC(=O)CCCC(=O)OCC(C)(C)[C@]1(O)O2 [7a, (1S,3R,13S,14S,E)-13-Hydroxy-3-(hydroxymethyl)-15-(2-methoxy-2-oxoethylidene)-12,12-dimethyl-5,9-dioxo-4,10,17-trioxabicyclo[11.3.1]heptadecan-14-yl Octanoate] | 4.4 | 4 | 1.7 | 2.7 | 1.5 | comparable to bryostatin
CCCCCCCC(=O)O[C@H]1/C(=C/C(=O)OC)C[C@H]2C[C@H]([C@@H](C)O)OC(=O)CCCC(=O)OCC(C)(C)[C@]1(O)O2 [7b, (1S,3R,13S,14S,E)-13-Hydroxy-3-((R)-1-hydroxyethyl)-15-(2-methoxy-2-oxoethylidene)-12,12-dimethyl-5,9-dioxo-4,10,17-trioxabicyclo[11.3.1]heptadecan-14-yl Octanoate] | – | – | – | – | – | strongly attenuated binding affinity relative to the des-methyl compound 7a
CCC/C=C/C=C/C(=O)O[C@H]1/C(=C/C(=O)OC)C[C@H]2C[C@H]([C@@H](C)O)OC(=O)C[C@H](O)C[C@@H]3C[C@H](OC(C)=O)C(C)(C)[C@](O)(C[C@@H]4C/C(=C/C(=O)OC)C[C@H](/C=C/C(C)(C)[C@]1(O)O2)O4)O3 [bryostatin 1, Bryostatin 1, reference compound] | – | – | – | 3 | 1.5 | –

Reference: article PMC13186263 (The Journal of organic chemistry, 2020)
